Measured values reported in patent US20040215284A1, “Treatment of neuromuscular dysfunction of the lower urinary tract with selective mGlu5 antagonists” (Recordati S.A., priority 2003, published 2004).
Read-outs that look alike come from different tables or passages of the source.

Key:
mGlu1 = molecular target: T1, mGlu1 (Rattus norvegicus, UniProt P23385); test: Radioligand binding assay at mGlu1, [3H]quisqualic acid, rat cerebellum membranes; conditions: for Ki: [3H]quisqualic acid
T1 construct: pellets from rat cerebellum were resuspended; from tissue; host or cells: rat cerebellum membranes (male Sprague Dawley)
T1 sequence (P23385 19-1199): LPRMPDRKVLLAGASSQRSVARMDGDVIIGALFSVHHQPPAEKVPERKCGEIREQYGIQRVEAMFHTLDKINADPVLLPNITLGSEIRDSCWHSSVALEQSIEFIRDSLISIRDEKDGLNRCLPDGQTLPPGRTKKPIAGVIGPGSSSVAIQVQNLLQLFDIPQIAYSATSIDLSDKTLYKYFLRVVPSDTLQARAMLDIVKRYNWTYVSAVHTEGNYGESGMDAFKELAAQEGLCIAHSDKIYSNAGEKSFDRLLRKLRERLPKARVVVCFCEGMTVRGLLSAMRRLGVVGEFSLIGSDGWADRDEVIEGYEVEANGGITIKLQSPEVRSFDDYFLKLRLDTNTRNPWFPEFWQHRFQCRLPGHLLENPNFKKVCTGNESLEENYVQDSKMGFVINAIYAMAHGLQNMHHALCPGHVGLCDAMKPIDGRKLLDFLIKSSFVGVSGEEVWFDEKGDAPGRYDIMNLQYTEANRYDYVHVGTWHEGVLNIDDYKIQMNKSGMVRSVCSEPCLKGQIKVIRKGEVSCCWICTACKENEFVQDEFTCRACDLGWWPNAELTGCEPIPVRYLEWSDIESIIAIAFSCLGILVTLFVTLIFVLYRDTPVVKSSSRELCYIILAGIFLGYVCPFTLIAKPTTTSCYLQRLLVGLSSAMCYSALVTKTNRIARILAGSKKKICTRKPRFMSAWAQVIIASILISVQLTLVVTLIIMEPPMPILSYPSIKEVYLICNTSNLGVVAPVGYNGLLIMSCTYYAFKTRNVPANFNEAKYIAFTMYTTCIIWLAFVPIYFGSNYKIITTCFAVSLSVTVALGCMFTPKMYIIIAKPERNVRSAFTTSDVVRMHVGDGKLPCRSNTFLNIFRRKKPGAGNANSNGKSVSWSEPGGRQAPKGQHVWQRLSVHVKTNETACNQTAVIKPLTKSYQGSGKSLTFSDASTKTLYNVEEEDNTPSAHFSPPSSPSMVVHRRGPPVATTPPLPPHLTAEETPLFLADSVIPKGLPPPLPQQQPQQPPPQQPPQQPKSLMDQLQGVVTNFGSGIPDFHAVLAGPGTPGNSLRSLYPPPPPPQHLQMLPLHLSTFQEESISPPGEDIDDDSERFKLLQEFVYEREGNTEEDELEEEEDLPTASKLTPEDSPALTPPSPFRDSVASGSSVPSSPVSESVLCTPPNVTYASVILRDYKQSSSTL
Procedure: (§1) Male Sprague Dawley rats (200-300 g, Charles River, Italy) were killed by cervical dislocation and the forebrain (cortex, striatum and hippocampus) and cerebellum were homogenized (2×20 sec) in 50 vols of cold 50 mM Tris buffer pH 7.4, using a Politron homogenizer (Kinematica). […] The final pellets were frozen and stored at −80° C. until use.
i) mGlu1: On experimental section pellets from rat cerebellum were resuspended in 150-200 vols of 20 mM N-2-hydroxyethylpiperazine-N′-2-ethanesulfonic acid (HEPES), 2 mM MgCl2, 2 mM CaCl2, pH 7.4.
(§2) The filters were then washed with cold buffer and the radioactivity retained on the filters was counted by liquid scintillation spectrometry.
(§3) Data were expressed as the mean of pKi(−log Ki)±SE.

[1] = molecular target: Group II (mGlu2 + mGlu3) receptors; test: Radioligand binding assay at Group II (mGlu2+mGlu3), [3H]LY341495, rat forebrain membranes; conditions: for Ki: [3H]LY341495
Procedure: as §1
iii) Group II (mGlu2+mGlu3): On experimental section pellets from rat forebrain were resuspended in 250 vols of 20 mM HEPES, 2 mM MgCl2, 2 mM CaCl2, pH 7.4. The membranes were incubated in a final volume of 1 ml for 30 min at 0° C. with 1 nM [^3H]LY341495 in the absence or presence of competing drugs.
as §2, §3

[2] = test system: rhythmic bladder-voiding contractions in anaesthetised rats; test: Rhythmic bladder-voiding contractions induced by bladder filling in anaesthetised rats; format: in vivo, rat; conditions: for BLADDER CONTRACTIONS quiescence time: mean ± SEM; for ED10min (extrapolated dose inducing 10 min of bladder quiescence): linear regression
Procedure: The animals were housed with free access to food and water and maintained on a forced 12-hour alternating light-dark cycle at 22-24° C. for at least one week, except during the experiment. […] The catheter was tied in place with a ligature around the external urethral orifice and was connected to conventional pressure transducers (Statham P23 ID/P23 XL). […] The bladder was then filled via the recording catheter by incremental volumes of warm (37° C.) saline until reflex bladder-voiding contractions occurred (usually 0.8-1.5 ml). For intravenous injection of bioactive compounds, PE 50 polyethylene tubing filled with physiological saline was inserted into the jugular vein.
From the cystometrogram, the number of contractions recorded 15 minutes before (basal values) and after treatment, as well as the mean amplitude of these contractions (mean height of the peaks in mmHg), were evaluated.
Morphine was tested, too, as a reference standard for this model.

mGlu5 [3] = molecular target: T2, mGlu5 (Rattus norvegicus, UniProt P31424); conditions: rat forebrain; for Ki: read-out: mGlu5 Ki, [3H]MPEP
T2 sequence (P31424 21-1203): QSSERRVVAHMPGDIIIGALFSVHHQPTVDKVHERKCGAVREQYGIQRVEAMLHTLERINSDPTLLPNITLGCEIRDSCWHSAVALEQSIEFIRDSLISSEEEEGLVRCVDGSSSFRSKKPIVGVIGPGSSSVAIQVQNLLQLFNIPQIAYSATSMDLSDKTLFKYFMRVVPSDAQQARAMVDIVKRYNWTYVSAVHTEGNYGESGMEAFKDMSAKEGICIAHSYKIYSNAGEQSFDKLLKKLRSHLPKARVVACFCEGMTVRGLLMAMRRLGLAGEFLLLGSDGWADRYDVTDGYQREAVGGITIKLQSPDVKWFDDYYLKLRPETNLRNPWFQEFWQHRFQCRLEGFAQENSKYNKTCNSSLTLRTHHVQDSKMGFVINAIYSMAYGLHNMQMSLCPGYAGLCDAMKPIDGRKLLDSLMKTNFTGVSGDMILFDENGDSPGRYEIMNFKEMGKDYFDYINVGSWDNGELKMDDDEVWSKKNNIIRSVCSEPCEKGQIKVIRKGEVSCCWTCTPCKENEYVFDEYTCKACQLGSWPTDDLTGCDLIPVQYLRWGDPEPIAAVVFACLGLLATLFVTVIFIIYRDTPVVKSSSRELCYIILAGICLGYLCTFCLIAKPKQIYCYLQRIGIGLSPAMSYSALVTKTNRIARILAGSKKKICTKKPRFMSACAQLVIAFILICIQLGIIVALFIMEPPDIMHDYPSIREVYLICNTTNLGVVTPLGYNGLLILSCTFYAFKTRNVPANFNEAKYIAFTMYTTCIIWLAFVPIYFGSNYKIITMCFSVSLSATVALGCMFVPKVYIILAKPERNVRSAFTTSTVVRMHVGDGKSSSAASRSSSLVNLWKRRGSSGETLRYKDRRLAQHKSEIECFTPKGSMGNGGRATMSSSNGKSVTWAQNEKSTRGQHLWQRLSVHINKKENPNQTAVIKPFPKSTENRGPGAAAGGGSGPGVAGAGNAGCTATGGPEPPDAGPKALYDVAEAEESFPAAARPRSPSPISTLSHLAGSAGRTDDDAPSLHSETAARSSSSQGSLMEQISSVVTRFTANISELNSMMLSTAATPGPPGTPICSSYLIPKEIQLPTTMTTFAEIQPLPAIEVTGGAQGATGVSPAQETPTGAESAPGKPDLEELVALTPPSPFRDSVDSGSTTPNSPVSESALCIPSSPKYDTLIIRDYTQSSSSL
Procedure: as §1
(§4) ii) mGlu5: On experimental section pellets from rat forebrain were resuspended in 100 vols of 20 mM HEPES, 2 mM MgCl2, 2 mM CaCl2, pH 7.4.
as §2, §3

mGlu5a = mGlu5a (Homo sapiens, UniProt P41594); conditions: literature, functional models; cited from earlier work
mGlu2 = mGlu2 (Homo sapiens, UniProt Q14416); conditions: cited from earlier work; for IC50: literature, functional models
mGlu2, sequence (Q14416 19-872): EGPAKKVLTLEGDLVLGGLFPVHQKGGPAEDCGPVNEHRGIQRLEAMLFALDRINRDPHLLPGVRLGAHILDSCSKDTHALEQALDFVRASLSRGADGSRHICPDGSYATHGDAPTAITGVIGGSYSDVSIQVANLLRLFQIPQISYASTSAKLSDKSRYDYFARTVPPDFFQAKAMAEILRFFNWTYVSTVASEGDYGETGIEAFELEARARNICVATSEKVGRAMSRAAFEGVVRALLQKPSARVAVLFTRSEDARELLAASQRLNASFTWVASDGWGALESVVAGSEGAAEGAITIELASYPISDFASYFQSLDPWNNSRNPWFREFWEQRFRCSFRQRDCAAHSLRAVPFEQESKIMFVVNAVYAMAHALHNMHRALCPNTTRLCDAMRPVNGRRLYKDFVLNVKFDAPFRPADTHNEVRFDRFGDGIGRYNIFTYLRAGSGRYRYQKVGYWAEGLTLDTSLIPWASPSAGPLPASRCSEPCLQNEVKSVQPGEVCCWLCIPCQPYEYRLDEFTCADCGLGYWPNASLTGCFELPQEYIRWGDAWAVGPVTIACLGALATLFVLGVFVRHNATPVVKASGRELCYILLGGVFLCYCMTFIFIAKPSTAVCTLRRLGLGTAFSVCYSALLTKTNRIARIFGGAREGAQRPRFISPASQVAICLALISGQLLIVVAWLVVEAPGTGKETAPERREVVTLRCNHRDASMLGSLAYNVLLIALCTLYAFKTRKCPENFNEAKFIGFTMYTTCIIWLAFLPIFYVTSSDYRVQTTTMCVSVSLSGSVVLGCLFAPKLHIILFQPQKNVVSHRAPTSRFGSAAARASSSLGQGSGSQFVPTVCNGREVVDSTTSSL

mGlu4a = mGlu4a (Homo sapiens, UniProt Q14833); conditions: literature, functional models; cited from earlier work
mGlu4a, sequence (Q14833 33-912): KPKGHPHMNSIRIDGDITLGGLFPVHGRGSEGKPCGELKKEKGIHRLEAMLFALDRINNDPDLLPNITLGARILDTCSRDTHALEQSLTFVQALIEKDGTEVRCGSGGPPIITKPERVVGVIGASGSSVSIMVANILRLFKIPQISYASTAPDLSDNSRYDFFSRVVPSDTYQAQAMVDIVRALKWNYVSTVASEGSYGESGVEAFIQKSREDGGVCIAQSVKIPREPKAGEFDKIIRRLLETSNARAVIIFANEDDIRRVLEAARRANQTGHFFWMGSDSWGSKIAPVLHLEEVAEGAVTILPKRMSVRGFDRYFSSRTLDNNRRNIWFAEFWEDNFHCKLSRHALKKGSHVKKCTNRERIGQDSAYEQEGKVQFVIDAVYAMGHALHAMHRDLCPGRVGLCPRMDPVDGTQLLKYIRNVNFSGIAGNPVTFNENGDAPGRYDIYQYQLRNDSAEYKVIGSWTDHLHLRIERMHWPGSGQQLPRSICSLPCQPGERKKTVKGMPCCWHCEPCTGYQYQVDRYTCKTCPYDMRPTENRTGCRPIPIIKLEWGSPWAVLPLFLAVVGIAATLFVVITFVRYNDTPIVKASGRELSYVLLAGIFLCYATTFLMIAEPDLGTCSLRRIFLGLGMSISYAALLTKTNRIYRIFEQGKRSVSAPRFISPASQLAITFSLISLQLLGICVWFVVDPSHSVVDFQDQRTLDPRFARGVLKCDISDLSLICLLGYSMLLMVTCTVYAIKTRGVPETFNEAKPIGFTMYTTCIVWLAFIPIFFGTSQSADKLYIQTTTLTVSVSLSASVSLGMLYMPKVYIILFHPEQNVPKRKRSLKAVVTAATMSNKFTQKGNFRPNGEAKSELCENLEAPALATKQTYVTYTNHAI

mGlu1a = mGlu1a (Homo sapiens, UniProt Q13255); conditions: literature, functional models; cited from earlier work
conscious rats = test: Cystometric parameters in conscious rats (bladder infused with saline); format: in vivo, rat
Procedure: Male Sprague-Dawley rats [Crl: CD® (SD) IGS BR] of 300-400 g b.w. supplied by Charles River Italia were used. The animals were housed with free access to food and water and maintained on a forced 12-hour-light/12-hour-dark cycle at 22-24° C. of temperature, except during the experiment. To quantify urodynamic parameters in conscious rats, cystometrographic studies were performed according to the procedure previously reported (Guarneri et al., Pharmacol. Res. 24: 75, 1991).
Briefly, the rats were anaesthetized by intraperitoneal administration of 3 ml/kg of Equithensin solution (pentobarbital 30 mg/kg and chloral hydrate 125 mg/kg) and placed in a supine position. An approximately 10 mm long midline incision was made in the shaved and cleaned abdominal wall. The urinary bladder was gently freed from adhering tissues, emptied and then cannulated via an incision in the bladder body, using a polyethylene cannula (0.58 mm internal diameter, 0.96 mm external diameter) which was permanently sutured with silk thread. For intravenous bolus injection, a similar polyethylene tubing filled with physiological saline containing sodium heparin (40 I.U./ml) was inserted into the jugular vein. The cannulae were exteriorized through a subcutaneous tunnel in the retroscapular area, where they were connected to a plastic adapter in order to avoid the risk of removal by the animal. For drug testing, the rats were utilized one day after implantation.
On the day of the experiment, the rats were placed in modified Bollman cages, i.e., restraining cages that were large enough to permit the rats to adopt a normal crouched posture, but narrow enough to prevent turning around. After a stabilization period of about 20 minutes, the free tip of the bladder cannula was connected through a T-shaped tube to a pressure transducer (Statham P23XL) and to a peristaltic pump (Gilson minipuls 2) for continuous infusion of a warm (37° C.) saline solution into the urinary bladder, at a constant rate of 0.1 ml/minute. The intraluminal-pressure signal during infusion of saline into the bladder was continuously recorded on a polygraph (Rectigraph-8K San-ei with BM614/2 amplifier from Biomedica Mangoni) and, from the cystometrogram, two urodynamic parameters were evaluated: bladder volume capacity (BVC) and micturition pressure (MP). BVC (in ml) is defined as the volume of saline infused into the bladder necessary to induce detrusor contraction followed by micturition. MP (in mmHg) is defined as the maximal intravesical pressure caused by contraction during micturition. Basal BVC and MP values were evaluated as the mean of the values observed in the cystometrograms recorded in an initial period of 30-60 minutes. At this point in the assay, the infusion was interrupted and the test compounds were administered either intravenously by the jugular catheter or orally by a stomach tube. The bladder infusion restarted and changes in BVC and MP were evaluated from the mean values obtained in the cystometrograms observed during 1, 2, 3, 4, and 5 hours after treatment. The compounds were administered in a volume of 1 ml/kg and 2 ml/kg for intravenous and oral administration routes, respectively. Groups of control animals received the same amount of vehicle corresponding to a solution of 8% dimethylformamide and 8% Tween 80 in water (final concentrations) for intravenous, or a solution of 0.5% methocel in water for oral route.
Under the given test conditions, measurement of BVC is equivalent to measurement of interval time between micturitions.
All data were expressed as mean±standard error. The percent changes of BVC and MP relative to the basal values, as well as Δ values (difference in ml or in mmHg) of BVC and MP (BVC or MP at time “x” minus basal value), were also evaluated for each rat/time. In the figures, data were reported as percentage changes relative to basal values. […]

[4] = test system: conscious rats with bladder infused with dilute acetic acid; test: Cystometric parameters in conscious rats with bladder infused with dilute acetic acid; format: in vivo, rat; conditions: 10 mg/kg oral, bladder infused with 0.2% acetic acid
Procedure: The method used was that described in Example 4. The basal BVC and MP values were evaluated as the mean of the values observed in the cystometrograms recorded over an initial period of 30-60 minutes. At this point in the test, the infusion was stopped and the test compounds were administered orally via gastric intubation. Infusion into the bladder was resumed, replacing the warm saline solution with dilute acetic acid (0.2%) and the variations in BVC and MP recorded were evaluated as mean values obtained in the cystometrograms 1, 2, 3 and 4 hours after the treatment, relative to the basal values. The compounds were administered in a volume of 2 ml/kg and the groups of control animals received the same amount of vehicle (0.5% Methocel in water) orally.
The statistical analysis of the data was performed as reported in Example 4.

mGlu6 = mGlu6 (Homo sapiens, UniProt O15303); conditions: literature, functional models; cited from earlier work
mGlu6, sequence (O15303 25-877): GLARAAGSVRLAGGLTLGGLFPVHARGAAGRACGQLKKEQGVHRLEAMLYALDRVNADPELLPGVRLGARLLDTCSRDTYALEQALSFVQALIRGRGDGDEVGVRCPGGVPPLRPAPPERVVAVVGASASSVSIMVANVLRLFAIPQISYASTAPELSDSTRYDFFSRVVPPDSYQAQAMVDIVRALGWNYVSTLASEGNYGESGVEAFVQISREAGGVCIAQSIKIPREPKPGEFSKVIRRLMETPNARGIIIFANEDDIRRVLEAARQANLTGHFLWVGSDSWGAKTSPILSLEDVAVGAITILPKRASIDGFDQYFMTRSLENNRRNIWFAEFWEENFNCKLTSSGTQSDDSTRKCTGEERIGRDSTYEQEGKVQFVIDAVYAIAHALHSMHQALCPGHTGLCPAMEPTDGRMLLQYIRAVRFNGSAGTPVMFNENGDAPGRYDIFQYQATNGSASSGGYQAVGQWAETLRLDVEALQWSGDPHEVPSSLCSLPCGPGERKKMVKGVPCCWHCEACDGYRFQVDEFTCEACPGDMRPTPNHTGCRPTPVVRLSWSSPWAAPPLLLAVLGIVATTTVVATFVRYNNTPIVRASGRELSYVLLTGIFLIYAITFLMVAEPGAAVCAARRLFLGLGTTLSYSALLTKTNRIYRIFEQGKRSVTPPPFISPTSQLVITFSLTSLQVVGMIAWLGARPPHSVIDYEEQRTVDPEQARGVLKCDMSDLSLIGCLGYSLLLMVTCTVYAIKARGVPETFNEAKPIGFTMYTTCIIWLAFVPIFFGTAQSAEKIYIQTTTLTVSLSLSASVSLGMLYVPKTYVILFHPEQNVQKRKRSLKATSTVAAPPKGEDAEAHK

mGlu7 = mGlu7 (Homo sapiens, UniProt Q14831); conditions: literature, functional models; cited from earlier work
mGlu8 = mGlu8 (Homo sapiens, UniProt O00222); conditions: literature, functional models; cited from earlier work
mGlu5 [5] = molecular target: T2, mGlu5; test: biochemical
Procedure: as §1, §4, §2, §3

[6] = i.v., MPEP 3 and 10 mg/kg, SIB 1893 50 mg/kg, FIG. 2

| SMILES | Ki (mGlu1) | Ki ([1]; rat forebrain) | BLADDER CONTRACTIONS quiescence time ([2]; 1000 μg/kg i.v.) | BLADDER CONTRACTIONS quiescence time ([2]; 3000 μg/kg i.v.) | activity as inhibitors of isovolumic voiding contractions (in words) ([2]; i.v., anaesthetised rats) | ED10min (extrapolated dose inducing 10 min of bladder quiescence) ([2]; i.v.) | IC50 (mGlu5a) | IC50 (mGlu4a) | BLADDER CONTRACTIONS quiescence time ([2]; 100 μg/kg i.v.) | BLADDER CONTRACTIONS quiescence time ([2]; 300 μg/kg i.v.) | IC50 (mGlu1a) | BLADDER CONTRACTIONS quiescence time ([2]; 30 μg/kg i.v.) | inhibition of the specific binding of [3H]MPEP to mGlu5 receptor (in words) (mGlu5 [3]) | other results |
| --- | --- | --- | --- | --- | --- | --- | --- | --- | --- | --- | --- | --- | --- | --- |
| NC1(C(=O)O)CCc2cc(C(=O)O)ccc21 (stereo not shown) [AIDA] | > 10 µM | > 10 µM | 1.50 ± 0.54 min | 2.33 ± 1.44 min | inactive | >10 mg/kg | > 1000 µM | > 1000 µM | – | – | – | – | – | BLADDER CONTRACTIONS quiescence time ([2]; 10000 μg/kg i.v.): 2.35 ± 0.50 min; Ki (mGlu5 [3]): > 10 µM; mGlu2 activity (in words) (mGlu2; literature (Moroni et al. 1997)): Weak |
| N[C@](CC1c2ccccc2Oc2ccccc21)(C(=O)O)[C@H]1C[C@@H]1C(=O)O [LY 341495] | – | 0.004 µM | 4.65 ± 2.11 min | – | inactive | >1 mg/kg | – | – | 2.45 ± 1.39 min | 4.48 ± 1.31 min | – | – | – | displacement of specific binding of [3H]LY341495 to Group II receptors (in words) ([1]; rat forebrain): displaced with high affinity |
| Cc1cc(C(=O)O)ccc1[C@H](N)C(=O)O [LY 367385] | 6 µM | > 1 µM | – | 1.00 ± 0.29 min | inactive | >10 mg/kg | > 100 µM | – | – | – | 8.8 µM | – | – | displacement of [3H]quisqualic acid from its binding sites (in words) (mGlu1): significantly displaced; BLADDER CONTRACTIONS quiescence time ([2]; 10000 μg/kg i.v.): 1.95 ± 0.30 min; Ki (mGlu5 [3]): > 10 µM |
| Cc1cccc(C#Cc2ccccc2)n1 [MPEP, 2-methyl-6-(phenylethynyl)pyridine] | > 10 µM | > 1 µM | 22.46 ± 5.35 min | – | active | 0.15 mg/kg | – | > 100 µM | 7.09 ± 1.04 min | 12.64 ± 1.72 min | > 100 µM | 3.90 ± 1.37 min | most potent inhibitors | bladder volume capacity (BVC) (conscious rats; 10 mg/kg i.v., vs basal values and vs control group, FIG. 1): significant increases in BVC; bladder volume capacity (BVC) (conscious rats; 3 and 10 mg/kg i.v., FIG. 1): effective in increasing the bladder volume capacity; micturition pressure (MP) (conscious rats; [6]): only mild effects on the micturition pressure; bladder volume capacity (BVC) (conscious rats; oral, 3-10 and 30 mg/kg, effect at 10 mg/kg or higher, FIG. 3): significant and dose-dependent increases in the BVC; micturition pressure (MP) (conscious rats; oral, 10 and 30 mg/kg, vs control group, FIG. 4): significantly reduced the MP; bladder volume capacity (BVC) ([4]; FIG. 5): effective in antagonizing the reduction of the bladder volume capacity; micturition pressure (MP) ([4]; FIG. 6): no effect on the micturition pressure; IC50 (mGlu2): > 100 µM; IC50 (mGlu6): > 100 µM; IC50 (mGlu7): > 100 µM; IC50 (mGlu8): > 100 µM |
| Cc1nc(C#Cc2cccnc2)cs1 [MTEP, 3-(2-methylthiazol-4-yl)ethynylpyridine] | – | – | 20.96 ± 4.66 min | – | active | 0.106 mg/kg | – | – | 8.73 ± 2.11 min | 13.90 ± 2.10 min | – | 5.52 ± 1.09 min | most potent inhibitors | – |
| CN1CC[C@]23c4c5ccc(O)c4O[C@H]2[C@@H](O)C=C[C@H]3[C@H]1C5 [Morphine] | – | – | – | – | – | 0.05 mg/kg | – | – | 13.83 ± 2.40 min | 18.17 ± 3.60 min | – | 6.89 ± 2.11 min | – | BLADDER CONTRACTIONS quiescence time ([2]; 10 μg/kg i.v.): 2.76 ± 0.93 min |
| Cc1cccc(C=Cc2ccccc2)n1 [SIB 1893, 2-methyl-6-(2-phenylethenyl)pyridine] | > 10 µM | > 10 µM | 4.44 ± 1.05 min | 15.57 ± 1.34 min | active | 1.928 mg/kg | 0.3 µM | > 30 µM | – | – | > 30 µM | – | weaker affinity | BLADDER CONTRACTIONS quiescence time ([2]; 2000 μg/kg i.v.): 8.00 ± 0.78 min; amplitude of contractions when contractions resumed, relative to before treatment (in words) ([2]; i.v., anaesthetised rats): no difference in the amplitude; bladder volume capacity (BVC) (conscious rats; 50 mg/kg i.v., FIG. 1): significantly increased the BVC only in comparison with the basal values; micturition pressure (MP) (conscious rats; [6]): only mild effects on the micturition pressure; IC50 (mGlu2): > 30 µM; IC50 (mGlu6): > 30 µM; IC50 (mGlu7): > 30 µM; IC50 (mGlu8): > 30 µM; Ki (mGlu5 [5]): 0.859 µM |
| N[C@](CC1c2ccccc2Oc2ccccc21)(C(=O)O)[C@H]1C[C@@H]1C(=O)O [[^3H]LY341495] | – | – | – | – | – | – | – | – | – | – | – | – | – | Kd ([1]; rat forebrain membranes, saturable binding, read-out: Kd of radioligand binding to mGlu2+mGlu3 subtypes): 0.0025 µM |
